Data: ChEMBL document CHEMBL1201862, “PubChem BioAssay data set” (2004)
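Step 1: Grow cells in 96-well plates. Step 2: Expose to compound for 48 hours at 5 concentrations. Step 3: Interpolate endpoints linearly; if unreached, use highest concentration. Abbreviation: GI50, concentration required for 50% inhibition of growth.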 Activity calls are given as the source filed them. Cut-off read from the data, not from the text of the source: active = GI50 up to about 1.1 µM and inactive = higher.

Tests used:
Assay in all cases: DTP human tumour cell line panel, 48 h
OVCAR-3 = tested on: OVCAR-3
HL-60 = tested on: HL-60
HCT-116 = tested on: HCT-116
SF-539 = tested on: SF-539
NCI-H460 = tested on: NCI-H460
SK-OV-3 = tested on: SK-OV-3
HCT-15 = tested on: HCT-15
SK-MEL-2 = tested on: SK-MEL-2
RPMI-8226 = tested on: RPMI-8226
NCI-H23 = tested on: NCI-H23
HCC 2998 = tested on: HCC 2998
SF-295 = tested on: SF-295
UACC-62 = tested on: UACC-62
MOLT-4 = tested on: MOLT-4
IGROV-1 = tested on: IGROV-1

SMILES	GI50 (OVCAR-3)	GI50 (HL-60)	GI50 (HCT-116)	GI50 (SF-539)	GI50 (NCI-H460)	GI50 (SK-OV-3)	GI50 (HCT-15) [µM]	GI50 (SK-MEL-2)	GI50 (RPMI-8226)	GI50 (NCI-H23)	GI50 (HCC 2998)	GI50 (SF-295)	GI50 (UACC-62)	GI50 (MOLT-4)	GI50 (IGROV-1)
COc1cc(/C=C2\Cc3ccccc3C2=O)cc(OC)c1OC	> 100 µM (inactive)	> 100 µM (inactive)	> 100 µM (inactive)	> 100 µM (inactive)	> 100 µM (inactive)	> 100 µM (inactive)	> 100	> 100 µM (inactive)	> 100 µM (inactive)	> 100 µM (inactive)	> 100 µM (inactive)	> 100 µM (inactive)	> 100 µM (inactive)	> 100 µM (inactive)	
Cc1ccc2oc(=O)cc(CC(=O)O)c2c1	> 100 µM (inactive)	> 100 µM (inactive)	> 100 µM (inactive)	> 100 µM (inactive)	> 100 µM (inactive)	> 100 µM (inactive)	> 100	> 100 µM (inactive)	> 100 µM (inactive)	> 100 µM (inactive)	> 100 µM (inactive)	> 100 µM (inactive)	> 100 µM (inactive)	> 100 µM (inactive)	> 100 µM (inactive)
CC(C)(C)C1CCN(C(=O)c2ccccc2)CC1	36.8 µM (inactive)	32.9 µM (inactive)	53.8 µM (inactive)	> 100 µM (inactive)	> 100 µM (inactive)	> 100 µM (inactive)	57.5	> 100 µM (inactive)	46 µM (inactive)	> 100 µM (inactive)	> 100 µM (inactive)	> 100 µM (inactive)	> 100 µM (inactive)	47.3 µM (inactive)	> 100 µM (inactive)
CCCCCCCCC1C(C)c2c([nH]c3ccccc23)C2C(=O)N(c3ccccc3)C(=O)C21 (stereo not given)	5.08 µM (inactive)	3.27 µM (inactive)	3.27 µM (inactive)	17.3 µM (inactive)	3.82 µM (inactive)	28.7 µM (inactive)	11.2	16 µM (inactive)	3.4 µM (inactive)	3.73 µM (inactive)	12.5 µM (inactive)	15.7 µM (inactive)	18.9 µM (inactive)	2.27 µM (inactive)	17.6 µM (inactive)
[O-][S+]1Nc2c(Cl)cc(Cl)c(Cl)c2S1 (stereo not given)	78.2 µM (inactive)	32.7 µM (inactive)	> 100 µM (inactive)	> 100 µM (inactive)	> 100 µM (inactive)	> 100 µM (inactive)	44.1	> 100 µM (inactive)	> 100 µM (inactive)	> 100 µM (inactive)	> 100 µM (inactive)	> 100 µM (inactive)	> 100 µM (inactive)	34.7 µM (inactive)	> 100 µM (inactive)
O=c1[nH]c2cc([N+](=O)[O-])ccc2nc1/C(=N\NO)C(O)c1ccc([N+](=O)[O-])cc1 (stereo not given)	> 100 µM (inactive)	79.4 µM (inactive)	> 100 µM (inactive)	31.3 µM (inactive)	> 100 µM (inactive)	> 100 µM (inactive)	35.2		> 100 µM (inactive)	> 100 µM (inactive)	> 100 µM (inactive)	> 100 µM (inactive)	59.6 µM (inactive)	> 100 µM (inactive)	> 100 µM (inactive)
CC12OC3(C)OC(=O)C(c4ccccc4)(O1)C3(C)O2 (stereo not given)	> 100 µM (inactive)	> 100 µM (inactive)	> 100 µM (inactive)	> 100 µM (inactive)		> 100 µM (inactive)	> 100	> 100 µM (inactive)	> 100 µM (inactive)	> 100 µM (inactive)	> 100 µM (inactive)	> 100 µM (inactive)	> 100 µM (inactive)	> 100 µM (inactive)	> 100 µM (inactive)
C/C(=N\NS(=O)(=O)c1c(C)cc(C)cc1C)c1ccc[n+]([O-])n1	12.6 µM (inactive)	6.12 µM (inactive)	13.1 µM (inactive)	13.6 µM (inactive)	30.7 µM (inactive)	> 100 µM (inactive)	14.7		11.7 µM (inactive)	15.5 µM (inactive)	33 µM (inactive)	62.2 µM (inactive)	16.4 µM (inactive)	14.5 µM (inactive)	31.6 µM (inactive)
COc1ccc2oc(C(=O)O)c3c2c1CCC3	> 100 µM (inactive)	> 100 µM (inactive)	> 100 µM (inactive)	> 100 µM (inactive)	> 100 µM (inactive)	> 100 µM (inactive)	> 100		> 100 µM (inactive)	> 100 µM (inactive)	> 100 µM (inactive)	> 100 µM (inactive)	> 100 µM (inactive)	> 100 µM (inactive)	> 100 µM (inactive)
